Experimental findings from patent publication US20250230165A1, “HETEROCYCLIC COMPOUNDS FOR USE IN THE TREATMENT OF CANCER” (ARTIOS PHARMA LIMITED, priority 2021, published 2025) are described below.

Structures are written as SMILES.

The target in the test is T1, Human Polθ polymerase domain (aa1820-2590) (Homo sapiens, UniProt O75417).
T1 construct: Human Polθ polymerase domain (aa1820-2590) was expressed in E. coli; made in house; host or cells: E. coli
T1 sequence (O75417 1820-2590): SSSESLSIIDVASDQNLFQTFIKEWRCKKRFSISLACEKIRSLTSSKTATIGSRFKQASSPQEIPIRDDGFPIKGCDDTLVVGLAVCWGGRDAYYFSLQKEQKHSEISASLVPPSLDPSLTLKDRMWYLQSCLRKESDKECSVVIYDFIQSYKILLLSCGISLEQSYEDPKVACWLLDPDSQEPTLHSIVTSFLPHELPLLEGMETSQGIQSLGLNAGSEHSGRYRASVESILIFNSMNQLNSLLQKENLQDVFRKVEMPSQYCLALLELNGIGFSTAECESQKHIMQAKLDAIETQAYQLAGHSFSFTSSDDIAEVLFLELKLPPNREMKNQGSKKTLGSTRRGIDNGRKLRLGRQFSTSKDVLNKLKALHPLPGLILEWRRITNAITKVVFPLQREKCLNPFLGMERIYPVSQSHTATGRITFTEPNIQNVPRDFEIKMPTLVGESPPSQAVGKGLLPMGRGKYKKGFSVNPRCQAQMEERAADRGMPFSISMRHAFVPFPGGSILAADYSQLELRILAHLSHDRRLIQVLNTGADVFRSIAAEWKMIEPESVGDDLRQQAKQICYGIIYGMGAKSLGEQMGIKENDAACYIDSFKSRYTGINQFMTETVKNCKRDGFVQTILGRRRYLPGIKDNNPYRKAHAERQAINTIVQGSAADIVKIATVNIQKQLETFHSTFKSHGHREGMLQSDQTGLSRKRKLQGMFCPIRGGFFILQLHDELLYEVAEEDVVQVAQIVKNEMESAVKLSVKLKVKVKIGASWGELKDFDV
As to the kind of experiment: Polθ Polymerase Domain Kinact/KI Assay (PicoGreen). The test is classed as biochemical. The note with it: 0.8 nM Polθ, 100 nM DNA substrate, kobs vs [I] fit for 2-step covalent inhibitor. The gist of the method: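 Time-dependent inhibition was followed by quenching reactions with EDTA at points up to 60 min, then staining product DNA with PicoGreen fluorescence. Reactions held 0.8 nM E. coli-expressed Polθ, 100 nM primed DNA substrate and […] at pH 7.5, 1% DMSO. kobs versus inhibitor concentration gave Kinact and KI.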
Turning to `C=CC(=O)N1CC2CN(CCN3C[C@H]4CC(=O)N(c5cc(C(F)(F)F)cc(C)n5)[C@@H]4C(=O)N(C)c4cccc(F)c43)CCN2C[C@@H]1C` (single isomer, unassigned) [Example 10], the Kinact/Kl worked out at 210000 M⁻¹ s⁻¹. With `C=CC(=O)N1CCC12CCN(CCN1C[C@H]3CC(=O)N(c4cc(C(F)(F)F)cc(C)n4)[C@@H]3C(=O)N(C)c3cccc(F)c31)C2` (single isomer, unassigned) [Example 21b] the figure was 140000 M⁻¹ s⁻¹. The result for `C=CC(=O)N1CC(N2CCO[C@H]3CN(CCN4C[C@H]5CC(=O)N(c6cc(C(F)(F)F)cc(C)n6)[C@@H]5C(=O)N(C)c5cccc(F)c54)C[C@@H]32)C1` (single isomer, unassigned) [Example 22a] reads 170000 M⁻¹ s⁻¹; that for `C=CC(=O)N1CC(N2CCO[C@@H]3CN(CCN4C[C@H]5CC(=O)N(c6cc(C(F)(F)F)cc(C)n6)[C@@H]5C(=O)N(C)c5cccc(F)c54)C[C@H]32)C1` (single isomer, unassigned) [Example 22b], 460000 M⁻¹ s⁻¹.

Turning to `C=CC(=O)N1CCN2CCN(CCN3C[C@H]4CC(=O)N(c5cc(C(F)(F)F)cc(C)n5)[C@@H]4C(=O)N(C)c4cccc(F)c43)CC2C1` (single isomer, unassigned) [Example 23b], the Kinact/Kl was 540000 M⁻¹ s⁻¹. The result for `C=CC(=O)N1CC2(CN(CCN3C[C@H]4CC(=O)N(c5cc(C(F)(F)F)cc(C)n5)[C@@H]4C(=O)N(C)c4cccc(F)c43)CC3COCCN32)C1` (single isomer, unassigned) [Example 24a] reads 1.63e+06 M⁻¹ s⁻¹; that for `C=CC(=O)N1C[C@H]2CN(CCN3C[C@H]4CC(=O)N(c5cc(C(F)(F)F)cc(C)n5)[C@@H]4C(=O)N(C)c4cccc(F)c43)CC[C@H]2C1` (single isomer, unassigned) [Example 25b], 250000 M⁻¹ s⁻¹. Take `C=CC(=O)N1CC2(CN(CCN3C[C@H]4CC(=O)N(c5cc(C(F)(F)F)cc(C)n5)[C@@H]4C(=O)N(C)c4cccc(Cl)c43)CC3COCCN32)C1` (single isomer, unassigned) [Example 26a]: the Kinact/Kl is 690000 M⁻¹ s⁻¹. With `C=CC(=O)N1CC2(C1)NCCN(CCN1C[C@H]3CC(=O)N(c4cc(C(F)(F)F)cc(C)n4)[C@@H]3C(=O)N(C)c3cccc(F)c31)C2C` (single isomer, unassigned) [Example 34b] the figure was 1.69e+06 M⁻¹ s⁻¹; with `C=CC(=O)N1C[C@H]2CN(CCN3C[C@H]4CC(=O)N(c5cc(C(F)(F)F)cc(C)n5)[C@@H]4C(=O)N(C)c4cccc(F)c43)CCN2C(=O)[C@H]1C` (single isomer, unassigned) [Example 58], 500000 M⁻¹ s⁻¹; with `C=CC(=O)N1C[C@@H]2CN(CCN3C[C@H]4CC(=O)N(c5cc(C(F)(F)F)cc(C)n5)[C@@H]4C(=O)N(C)c4cccc(F)c43)CCN2C(=O)[C@@H]1C` (single isomer, unassigned) [Example 59], 1.08e+06 M⁻¹ s⁻¹. Turning to `C=CC(=O)N1C[C@@H]2CN(CCN3C[C@H]4CC(=O)N(c5cc(C(F)(F)F)cc(C)n5)[C@@H]4C(=O)N(C)c4cccc(F)c43)CCN2C(=O)[C@H]1C` (single isomer, unassigned) [Example 60], the Kinact/Kl is 300000 M⁻¹ s⁻¹. Take `C=CC(=O)N1C[C@H]2CN(CCN3C[C@H]4CC(=O)N(c5cc(C(F)(F)F)cc(C)n5)[C@@H]4C(=O)N(C)c4cccc(F)c43)CCN2C(=O)[C@@H]1C` (single isomer, unassigned) [Example 61]: the Kinact/Kl was 500000 M⁻¹ s⁻¹. With `C=CC(=O)N1CC(N(C)CC(O)CN2C[C@H]3CC(=O)N(c4cc(C(F)(F)F)cc(C)n4)[C@@H]3C(=O)N(C)c3cccc(Cl)c32)C1` (single isomer, unassigned) [Example 69] the figure was 1.09e+06 M⁻¹ s⁻¹. `C=CC(=O)N1CCN2C(=O)[C@H](C)N(CCN3C[C@H]4CC(=O)N(c5cc(C(F)(F)F)cc(C)n5)[C@@H]4C(=O)N(C)c4cccc(F)c43)C[C@@H]2C1` (single isomer, unassigned) [Example 108] yielded a Kinact/Kl of 2.35e+06 M⁻¹ s⁻¹. With `C=CC(=O)N1CC2(CN(CCN3C[C@H]4CC(=O)N(c5cc(C(F)(F)F)cc(C)n5)[C@@H]4C(=O)N(C)c4cccc(Cl)c43)CC2C#N)C1` (single isomer, unassigned) [Example 117a] the figure was 1.89e+06 M⁻¹ s⁻¹. Compound `C=CC(=O)N1CC2(CN(CCN3C[C@H]4CC(=O)N(c5cc(C(F)(F)F)cc(C)n5)[C@@H]4C(=O)N(C)c4cccc(C)c43)CC2C#N)C1` (single isomer, unassigned) [Example 118a] showed a Kinact/Kl of 3e+06 M⁻¹ s⁻¹.

In the case of `C=CC(=O)N1CC2(CN(CCN3C[C@H]4CC(=O)N(c5cc(C(F)(F)F)cc(C)n5)[C@@H]4C(=O)N(C)c4cccc(C)c43)CC2(C)C#N)C1` (single isomer, unassigned) [Example 119a], the Kinact/Kl turned out to be 4.57e+06 M⁻¹ s⁻¹.

`C=CC(=O)N1CCN2C[C@@H](CN3C[C@H]4CC(=O)N(c5cc(C(F)(F)F)cc(C)n5)[C@@H]4C(=O)N(C)c4cccc(F)c43)N(C)C[C@H]2C1` (single isomer, unassigned) [Example 140a] registered a Kinact/Kl of 22000 M⁻¹ s⁻¹. Compound `C=CC(=O)N1CCN2C[C@@H](CN3C[C@H]4CC(=O)N(c5cc(C(F)(F)F)cc(C)n5)[C@@H]4C(=O)N(C)c4cccc(F)c43)N(C)CC2C1` (single isomer, unassigned) [Example 140b] had a Kinact/Kl of 230000 M⁻¹ s⁻¹. With `C=CC(=O)N1CCCC1c1ccc(CN2C[C@H]3CC(=O)N(c4cc(C(F)(F)F)cc(C)n4)[C@@H]3C(=O)N(C)c3cccc(F)c32)cc1` (single isomer, unassigned) [Example 141a] the figure was 200000 M⁻¹ s⁻¹; with `C=CC(=O)N1CCn2cc(CN3C[C@H]4CC(=O)N(c5cc(C(F)(F)F)cc(C)n5)[C@@H]4C(=O)N(C)c4cccc(Cl)c43)nc2C1C` (single isomer, unassigned) [Example 142a], 1.75e+06 M⁻¹ s⁻¹. The result for `C=CC(=O)N1Cc2nc(CN3C[C@H]4CC(=O)N(c5cc(C(F)(F)F)cc(C)n5)[C@@H]4C(=O)N(C)c4cccc(Cl)c43)cn2CC1C` (single isomer, unassigned) [Example 143a] reads 1e+06 M⁻¹ s⁻¹; that for `C=CC(=O)N1Cc2nc(CN3C[C@H]4CC(=O)N(c5cc(C(F)(F)F)cc(C)n5)[C@@H]4C(=O)Nc4cccc(Cl)c43)cn2CC1C` (single isomer, unassigned) [Example 144a], 1.06e+06 M⁻¹ s⁻¹; that for `C=CC(=O)N1Cc2nc(CN3C[C@H]4CC(=O)N(c5cc(C(F)(F)F)cc(C)n5)[C@@H]4C(=O)N(C)c4cccc(C)c43)cn2CC1C` (single isomer, unassigned) [Example 206a], 4.36e+06 M⁻¹ s⁻¹. Consider `C=CC(=O)N1CC(N2CCCC(CN3C[C@H]4CC(=O)N(c5cc(C(F)(F)F)cc(C)n5)[C@@H]4C(=O)N(C)c4cccc(F)c43)C2)C1` (single isomer, unassigned) [Example 225a], for which the Kinact/Kl turned out to be 320000 M⁻¹ s⁻¹. With `C=CC(=O)N1CC(N2CC[C@@H](CN3C[C@H]4CC(=O)N(c5cc(C(F)(F)F)cc(C)n5)[C@@H]4C(=O)N(C)c4cccc(Cl)c43)[C@H](C#N)C2)C1` (single isomer, unassigned) [Example 226a] the figure was 230000 M⁻¹ s⁻¹; with `C=CC(=O)N1CC(N2CC[C@H](CN3C[C@H]4CC(=O)N(c5cc(C(F)(F)F)cc(C)n5)[C@@H]4C(=O)N(C)c4cccc(Cl)c43)[C@@H](C#N)C2)C1` (single isomer, unassigned) [Example 226b], 870000 M⁻¹ s⁻¹.
